Structures can show the parent of a compound that is named as a salt.
Test system: kidney
Assay: Transcriptional profiling on Affymetrix GeneChips, single dose, naïve mice: kidney
Format: in vivo, C57BL/6 mice
Details: 100 DMF-vs-Veh, 2 h
Protocol: Treated mice were sacrificed at 2, 7, or 12 hours. Tissues (liver, spleen, kidney, jejunum, cortex, hippocampus, striatum and whole blood) were collected and analyzed by transcriptional profiling on mouse Affymetrix GeneChips.
Tissues (liver, spleen, kidney, jejunum, cortex, hippocampus, striatum and whole blood) were collected and analyzed by transcriptional profiling on mouse Affymetrix GeneChips.
Animals were exposed to CO2 and whole blood collected via cardiac puncture. Two 100 μl aliquots of whole blood were collected in 1.5 mL microcentrifuge tubes and snap frozen in liquid nitrogen. Peripheral (liver, spleen, kidney and jejunum) and CNS brain (cerebellum, hippocampus, striatum and cortex) tissues were harvested and snap frozen in liquid nitrogen, with special care taken to collect tissues of similar size and from the same location. All samples were stored at −80° C. until RNA extraction was conducted.
For RNA preparation, frozen tissues were placed in 2 mL RNAse-free 96-well blocks with 1.5 mL QIAzol Lysis Reagent (QIAgen) and a 3.2 mm stainless steel bead (BioSpec Products, Bartlesville, Okla.). Tissues were disrupted for four cycles of 45 seconds in a Mini-Beadbeater (Biospec Products). RNA was extracted in chloroform and the aqueous phase was mixed with an equal volume of 70% ethanol. Extracted RNA was applied to RNeasy 96 plates and purified by the spin method according to the manufacturer's protocol (RNeasy 96 Universal Tissue Protocol, QIAgen, Hilden Germany).
Automated sample amplifications and biotin labelings were carried out using the NuGEN Ovation RNA Amplification system V2 (Cat #3100), Ovation WB reagent (Cat #1300) and Encore Biotin module (Cat #4200) (NuGEN Technologies, Inc, San Carlos, Calif.) according to manufacturer's recommendations using an Arrayplex automated liquid handler (Beckman Coulter, Indianapolis, Ind.). Two micrograms of biotin labeled sscDNA probe were hybridized to Affymetrix GeneChip Affymetrix HT_MG-430_PM plate arrays with modified conditions as described in Allaire et al. Washing and staining of the hybridized arrays were completed as described in the GeneChip Expression analysis technical manual for HT plate arrays using the Genechip® Array Station (Affymetrix, Santa Clara, Calif.) with modifications as described in Allaire et al. The processed GeneChip® plate arrays were scanned using GeneTitan scanner (Affymetrix, Santa Clara, Calif.).
Affymetrix scans were subject to quality control (QC) measures. These tests included a visual inspection of the distribution of raw signal intensities and an assessment of RNA degradation, relative log expression (RLE), and normalized unsealed standard error (NUSE). All sample scans that passed these QC metrics were included in the analysis.
All CEL files were subjected to GC-content-based Robust Multi-array Average (GCRMA) normalization (version 2.20.0) (Irizarry R A, et al. Nucleic Acids Res 2003; 31:e15; Li C, et al. Genome Biol 2001; 2:[…]0032). Expression levels were log (base 2) transformed.
All calculations and analyses were carried out using R (version 2.11.1) and Bioconductor computational tools (Gentleman R. Springer Science+Business Media 2005).

SMILES: COC(=O)/C=C/C(=O)OC [DMF, dimethyl fumarate]
- FC 1200016B10Rik 1428654_PM_at: 1.59
- FC 1200016B10Rik 1452859_PM_at: 1.62
- FC 1438879_PM_at: −1.61
- FC 1439292_PM_at: 2.14
- FC 1440076_PM_at: 3.71
- FC 1440084_PM_at: −1.57
- FC 1440304_PM_at: −1.68
- FC 1440457_PM_at: 1.76
- FC 1440660_PM_at: −1.56
- FC 1441155_PM_at: 1.51
- FC 1441360_PM_at: 1.55
- FC 1441413_PM_at: 1.88
- FC 1441455_PM_at: 1.58
- FC 1441482_PM_at: −2.08
- FC 1441484_PM_at: −1.79
- FC 1441518_PM_at: −1.67
- FC 1441794_PM_at: −1.72
- FC 1442422_PM_at: 1.74
- FC 1442483_PM_at: −1.59
- FC 1442504_PM_at: −1.70
- FC 1442506_PM_at: 5.76
- FC 1442671_PM_at: 1.55
- FC 1442725_PM_at: −1.53
- FC 1442928_PM_at: 1.66
- FC 1443100_PM_at: −1.63
- FC 1443109_PM_at: 1.69
- FC 1443289_PM_at: −1.65
- FC 1443335_PM_at: −1.78
- FC 1443546_PM_at: 1.74
- FC 1443566_PM_at: −1.76
- FC 1443673_PM_x_at: 2.06
- FC 1444021_PM_at: 3.24
- FC 1444057_PM_at: 1.75
- FC 1444111_PM_at: −1.67
- FC 1444212_PM_at: 1.57
- FC 1444227_PM_at: 1.56
- FC 1444265_PM_at: 1.93
- FC 1445290_PM_at: −1.52
- FC 1445349_PM_at: −1.70
- FC 1445600_PM_at: −1.65
- FC 1445664_PM_at: −1.60
- FC 1446075_PM_at: −1.62
- FC 1446172_PM_at: 1.85
- FC 1446621_PM_at: 1.74
- FC 1446921_PM_at: 1.58
- FC 1447172_PM_at: −1.61
- FC 1447396_PM_at: −1.90
- FC 1447411_PM_at: 4.68
- FC 1700012D14Rik 1438880_PM_at: −1.55
- FC 1810013L24Rik 1431018_PM_at: 1.50
- FC 2200002K05Rik 1428400_PM_at: −1.79
- FC 2210403K04Rik 1428562_PM_at: 1.86
- FC 2210416J07Rik 1432665_PM_at: −1.87
- FC 2410089E03Rik 1443422_PM_at: −1.72
- FC 2810029C07Rik 1428686_PM_at: −1.58
- FC 2900011L18Rik 1432757_PM_at: 1.62
- FC 4833418N02Rik 1430686_PM_at: −1.51
- FC 4921509J17Rik 1430244_PM_at: 1.60
- FC 4932416J16Rik 1430783_PM_at: −1.67
- FC 4933427G17Rik 1431905_PM_s_at: −1.65
- FC 5830487K18Rik 1432625_PM_at: −1.90
- FC 6430571L13Rik 1439669_PM_at: −1.85
- FC 9130221J17Rik (1443159_PM_at): 9.22
- FC 9530086O07Rik 1430392_PM_at: −1.52
- FC A130012E19Rik 1440671_PM_at: 1.56
- FC AI845619 1442726_PM_s_at: 5.44
- FC Aars 1451083_PM_s_at: 1.53
- FC Abce1 1442071_PM_at: 1.53
- FC Acvr2b 1419140_PM_at: −1.51
- FC Adamts1 1450716_PM_at: 1.86
- FC Adamts15 1427056_PM_at: −2.26
- FC Ahsa2 1435160_PM_at: 1.64
- FC Aldh2 1437410_PM_at: 1.69
- FC Alkbh1 1434660_PM_at: 1.53
- FC Anxa7 1438764_PM_at: 1.88
- FC Aox1 (1419435_PM_at): 2.46
- FC Arl5b 1437884_PM_at: 1.93
- FC Arpc5l 1441190_PM_at: 1.70
- FC Asns 1433966_PM_x_at: 2.54
- FC Asns 1451095_PM_at: 3.03
- FC Atf4 1438992_PM_x_at: 1.77
- FC Atf4 1448135_PM_at: 2.12
- FC Atp1a2 1452308_PM_a_at: 1.84
- FC BC005512 /// F630007L15Rik /// Gm6958 1426936_PM_at: −1.67
- FC BC005512 /// F630007L15Rik /// Gm6958 1435628_PM_x_at: −1.72
- FC BC026585 1445857_PM_at: −1.51
- FC BC031353 1439293_PM_at: −1.84
- FC Bach1 1440831_PM_at: 1.90
- FC Bach1 1449311_PM_at: 2.55
- FC Bag3 1422452_PM_at: 2.03
- FC Baiap2 1425656_PM_a_at: 1.51
- FC Baz1a 1433599_PM_at: 2.51
- FC Baz1a /// LOC100505185 1447930_PM_at: 2.56
- FC Bcl11b 1438784_PM_at: −1.52
- FC Brd2 1423502_PM_at: 1.83
- FC Brd2 1437210_PM_a_at: 2.07
- FC Btbd10 1438578_PM_a_at: 1.60
- FC C730027H18Rik 1442546_PM_at: −1.57
- FC Cars 1452394_PM_at: 1.63
- FC Cbr3 (1427912_PM_at): 3.04
- FC Ccdc30 1430593_PM_at: −2.01
- FC Ccdc117 1452218_PM_at: 1.54
- FC Cenpe 1435005_PM_at: −2.20
- FC Chac1 1451382_PM_at: 31.00
- FC Chd1 1420990_PM_at: 1.76
- FC Chd1 1450077_PM_at: 1.67
- FC Cltc 1439094_PM_at: 2.07
- FC Cyp27b1 1427372_PM_at: −3.22
- FC Cyr61 1438133_PM_a_at: 2.64
- FC D16Ertd778e 1445089_PM_at: −2.60
- FC Dcbld1 1418966_PM_a_at: 1.78
- FC Ddit3 1443897_PM_at: 3.97
- FC Dnaja4 1434196_PM_at: 1.63
- FC Dnajb4 1431734_PM_a_at: 2.15
- FC Dnajb4 1451177_PM_at: 2.48
- FC Dusp4 1428834_PM_at: 2.09
- FC Dusp5 1437199_PM_at: 3.68
- FC E130306D19Rik 1436725_PM_at: −1.64
- FC Eid3 1429350_PM_at: 1.84
- FC Eif2c3 1435904_PM_at: 1.53
- FC Esd (1441604_PM_at): 1.62
- FC Fam126a 1450724_PM_at: 1.70
- FC Fbxo30 1436550_PM_at: 1.81
- FC Fgd3 1433398_PM_at: 1.66
- FC Fgf1 1441042_PM_at: −2.91
- FC Fgfbp1 1419086_PM_at: 1.81
- FC Fn3k 1442436_PM_at: −1.60
- FC Fras1 1440765_PM_at: −1.73
- FC Gadd45a 1449519_PM_at: 1.75
- FC Gclc (1424296_PM_at): 1.70
- FC Gdap10 1420342_PM_at: 1.52
- FC Gdf15 1418949_PM_at: 5.39
- FC Gm10374 1436357_PM_at: −1.52
- FC Gm10804 1441759_PM_at: −1.67
- FC Gsta3 (1423437_PM_at): 2.01
- FC Gt(ROSA)26Sor 1452239_PM_at: 1.62
- FC Hectd2 1433944_PM_at: 1.67
- FC Hinfp 1440255_PM_at: 1.57
- FC Hk2 1422612_PM_at: 2.72
- FC Hmox1 1448239_PM_at: 6.27
- FC Hnf1b 1421224_PM_a_at: −1.77
- FC Hnf1b 1451687_PM_a_at: −1.82
- FC Hsp90aa1 1426645_PM_at: 1.64
- FC Hsp90aa1 1437497_PM_a_at: 1.55
- FC Hspa1a 1452388_PM_at: 2.35
- FC Hspa1b 1427126_PM_at: 3.65
- FC Hspa1b 1427127_PM_x_at: 3.37
- FC Hspa1b 1452318_PM_a_at: 1.70
- FC Hspa4l 1439093_PM_at: 1.67
- FC Hspa8 /// LOC624853 1431182_PM_at: 2.63
- FC Hsph1 1423566_PM_a_at: 2.40
- FC Igf1r 1446303_PM_at: −1.66
- FC Jmjd6 1420056_PM_s_at: 1.52
- FC Jmjd6 1420057_PM_at: 1.54
- FC Jun 1448694_PM_at: 1.50
